Results published in PMC6152279, “Characterization of the Fifth Putative Acetylcholinesterase in the Wolf Spider, Pardosa pseudoannulata” (Molecules : A Journal of Synthetic Chemistry and Natural …, 2017).
Values joined by “and” are separate entries in the source; they are usually repeats but may differ in a detail not shown here. Identical values can stand only once. Like-named read-outs stand apart in the source and are kept apart here.

Tests used:
PpAChE4 [1] = details: cited from earlier work
PpAChE2 [2] = details: cited from earlier work
PpAChE5 [3] = target: T1, PpAChE5 (Pardosa pseudoannulata, UniProt A0A1B1FIV8); assay: Inhibition of enzyme activity (IC50) of PpAChE5; type: biochemical; details: for IC50: 10 min preincubation with inhibitor
T1 sequence (A0A1B1FIV8 25-553): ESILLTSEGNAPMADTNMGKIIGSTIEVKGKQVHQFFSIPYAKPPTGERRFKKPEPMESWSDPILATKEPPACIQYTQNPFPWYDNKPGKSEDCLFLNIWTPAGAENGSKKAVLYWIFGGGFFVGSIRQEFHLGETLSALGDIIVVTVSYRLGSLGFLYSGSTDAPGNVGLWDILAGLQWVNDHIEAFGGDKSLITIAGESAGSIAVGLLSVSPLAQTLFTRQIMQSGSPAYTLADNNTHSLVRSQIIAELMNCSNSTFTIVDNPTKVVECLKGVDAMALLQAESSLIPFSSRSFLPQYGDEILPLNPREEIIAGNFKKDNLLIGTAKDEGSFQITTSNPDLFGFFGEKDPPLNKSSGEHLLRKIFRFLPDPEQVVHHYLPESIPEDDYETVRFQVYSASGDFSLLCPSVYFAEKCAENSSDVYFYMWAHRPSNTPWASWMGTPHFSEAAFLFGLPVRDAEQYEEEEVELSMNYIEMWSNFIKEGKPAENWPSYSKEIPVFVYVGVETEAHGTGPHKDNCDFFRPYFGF
Description: (§1) As described previously, complete coding sequence of the new putative ace gene was subcloned into the expression vector pFastBac-HTa with its specific primers (Table 5) and verified by nucleotide sequencing. The vector with an enhanced green fluorescent protein (eGFP, GenBank accession number: AAK15492), which constructed previously in our laboratory was as a control. Using baculovirus-insect expression system, Sf9 cells which infected by the recombinant Bacmid DNAs were used for protein expression, and the baculovirus culture supernatants were collected as the crude enzyme. The culture supernatants of non-infectious Sf9 cells were used as the negative control.
(§2) The methods for enzyme biochemical properties assaying were performed as described previously. Fifty microliters of enzyme, 100 μL of DTNB (75 μM) and 100 μL of substrate at different concentrations were mixed in a 96-well microplate for the enzyme activities detecting. Using Molecular Devices Thermomax Kinetic Microplate Reader, the mixed solutions were monitored for 20 min in 30 s intervals at 405 nm and three replications were used to calculate the mean level of enzyme activity. Different pH of the mixed-reaction solutions were employed for detecting enzyme optimal pH condition. Under the optimal pH of enzyme, the Michaelis–Menten constant value (KM) and maximal reaction velocity (Vmax) for each substrate were determined by fitting the velocity (ν) and substrate concentration ([S], 20–2000 μM) data to ν = Vmax [S]/(KM + [S]) using Prism 5.0 (GraphPad Software, La Jolla, CA, USA). Protein concentration was measured by the Protein-dye Binding Method according to the Micro BCA Protein Assay Kit (ThermoFisher, Waltham, MA, USA) instruction.
To determine IC50 values of enzyme to different inhibitors, the enzyme was first incubated with an inhibitor at various concentrations ([I]) for 10 min. The residual enzyme activity (in reference to a mixture of the enzyme and buffer) was determined as above and plotted against −log10[I]. The IC50 value for each inhibitor was determined from nonlinear regression analysis of activity and −log10[I] data using Prism 5.0 (GraphPad Software, La Jolla, CA, USA). The bimolecular rate constant (ki) was determined by enzyme reaction premixed with various concentrations of an inhibitor and was fitted using Prism 5.0.

PpAChE1 [4] = details: cited from earlier work
PpAChE3 [5] = details: cited from earlier work
PpAChE4 [6] = details: cited from earlier work; for Km / Vmax: substrate hydrolysis by PpAChE4
PpAChE3 [7] = details: cited from earlier work; for Km / Vmax: substrate hydrolysis by PpAChE3
PpAChE1 [8] = details: cited from earlier work; for Km / Vmax: substrate hydrolysis by PpAChE1
PpAChE5 [9] = target: T1, PpAChE5; assay: Substrate hydrolysis kinetics of recombinant PpAChE5; type: biochemical; details: for Km / Vmax: substrate hydrolysis by PpAChE5, optimal pH
Description: as §1, §2

PpAChE2 [10] = details: cited from earlier work; for Km / Vmax: substrate hydrolysis by PpAChE2
PpAChE5 [11] = target: T1, PpAChE5; assay: Inhibition kinetics (bimolecular rate constant ki) of PpAChE5; type: biochemical; details: ATC hydrolysis
Description: as §1
The methods for enzyme biochemical properties assaying were performed as described previously. Fifty microliters of enzyme, 100 μL of DTNB (75 μM) and 100 μL of substrate at different concentrations were mixed in a 96-well microplate for the enzyme activities detecting. Using Molecular Devices Thermomax Kinetic Microplate Reader, the mixed solutions were monitored for 20 min in 30 s intervals at 405 nm and three replications were used to calculate the mean level of enzyme activity. […] Protein concentration was measured by the Protein-dye Binding Method according to the Micro BCA Protein Assay Kit (ThermoFisher, Waltham, MA, USA) instruction. […]

SMILES	Km (PpAChE4 [6])	Vmax (PpAChE4 [6])	Km (PpAChE3 [7])	Vmax (PpAChE3 [7])	Km (PpAChE1 [8])	Vmax (PpAChE1 [8])	Km (PpAChE5 [9])	Vmax (PpAChE5 [9])	Km (PpAChE2 [10])	Vmax (PpAChE2 [10])	IC50 (PpAChE4 [1]; PpAChE4, on ATC hydrolysis)	IC50 (PpAChE2 [2]; PpAChE2, on ATC hydrolysis)	inhibition on ATC hydrolysis activity of PpAChE5 (PpAChE5 [3]; in words)	IC50 (PpAChE5 [3]; PpAChE5, on ATC hydrolysis)	IC50 (PpAChE1 [4]; PpAChE1, on ATC hydrolysis)	IC50 (PpAChE3 [5]; PpAChE3, on ATC hydrolysis)	also measured
CC(C)NP(=O)(NC(C)C)OP(=O)(NC(C)C)NC(C)C [ISO-OMPA, tetraisopropyl pyrophosphoramide]	–	–	–	–	–	–	–	–	–	–	–	–	–	–	–	–	IC50 (PpAChE4 [1]; PpAChE4, on BTC hydrolysis): > 100000 nM; IC50 (PpAChE2 [2]; PpAChE2, on BTC hydrolysis): 21700 ± 3260 nM; inhibition against BTC hydrolysis (PpAChE5 [3]; PpAChE5, BTC hydrolysis, in words): very weak inhibition; IC50 (PpAChE5 [3]; PpAChE5, on BTC hydrolysis): > 100000 nM; IC50 (PpAChE1 [4]; PpAChE1, on BTC hydrolysis): > 100000 nM; IC50 (PpAChE3 [5]; PpAChE3, on BTC hydrolysis): > 100000 nM
CCC(=O)SCC[N+](C)(C)C.[I-] [PTC, propionylthiocholine iodide]	279 ± 35.2 µM	49.7 ± 8.4 d nmol/mg·min	504 ± 86.8 µM	106.2 ± 15.1 b nmol/mg·min	1150 ± 134 µM	76.2 ± 9.2 c nmol/mg·min	1550 ± 129 µM	59.0 ± 7.2 cd nmol/mg·min	4500 ± 319 µM	156.8 ± 21.3 a nmol/mg·min	–	–	–	–	–	–	–
C=CC[N+](C)(C)c1ccc(CCC(=O)CCc2ccc([N+](C)(C)CC=C)cc2)cc1.[Br-].[Br-] [BW284C51, 1,5-bis(4-allyldimethylammoniumphenyl)-pentan-3-one dibromide]	–	–	–	–	–	–	–	–	–	–	73.6 ± 10.5 nM	2540 ± 214 nM	strong inhibition	471 ± 69.3 nM	51.2 ± 7.6 nM	36.8 ± 5.3 nM	–
CNC(=O)Oc1ccc2c(c1)[C@]1(C)CCN(C)[C@@H]1N2C [Eserine, eserine]	–	–	–	–	–	–	–	–	–	–	245 ± 39.4 nM	1860 ± 251 nM	strong inhibition	1160 ± 157 nM	117 ± 20.6 nM	65.2 ± 18 nM	ki (PpAChE5 [11]): 6.24 ± 1.72 b ×10^−7M^−1min^−1
CCCC(=O)SCC[N+](C)(C)C.[I-] [BTC, butyrylthiocholine iodide]	269 ± 35.5 µM	105.5 ± 8.9 b nmol/mg·min	199 ± 22.3 µM	40.3 ± 5.6 c nmol/mg·min	859 ± 103 µM	95.4 ± 12.8 b nmol/mg·min	1530 ± 118 µM	91.6 ± 11.3 b nmol/mg·min	4540 ± 326 µM	233.9 ± 16.5 a nmol/mg·min	–	–	–	–	–	–	Vmax Ratio BTC vs. BTC (PpAChE4 [6]; PpAChE4): 2.12; Vmax Ratio BTC vs. BTC (PpAChE1 [8]; PpAChE1): 1.25; Vmax Ratio BTC vs. BTC (PpAChE5 [9]; PpAChE5): 1.55; Vmax Ratio BTC vs. BTC (PpAChE2 [10]; PpAChE2): 1.49
CC(=O)SCC[N+](C)(C)C.[I-] [ATC, acetylthiocholine iodide]	61.6 ± 7.5 µM	86.6 ± 9.7 d nmol/mg·min	42.9 ± 5.8 µM	124.7 ± 11.5 c nmol/mg·min	537 ± 63.4 µM	112.6 ± 8.8 c nmol/mg·min	1300 ± 163 µM	428.4 ± 29.2 a nmol/mg·min	4410 ± 534 µM	253.9 ± 20.4 b nmol/mg·min	–	–	–	–	–	–	Vmax Ratio ATC vs. BTC (PpAChE4 [6]; PpAChE4): 0.82; Vmax Ratio ATC vs. PTC (PpAChE4 [6]; PpAChE4): 1.74; Vmax Ratio ATC vs. BTC (PpAChE3 [7]; PpAChE3): 3.09; Vmax Ratio ATC vs. PTC (PpAChE3 [7]; PpAChE3): 1.17; Vmax Ratio ATC vs. BTC (PpAChE1 [8]; PpAChE1): 1.18; Vmax Ratio ATC vs. PTC (PpAChE1 [8]; PpAChE1): 1.48; Vmax Ratio ATC vs. BTC (PpAChE5 [9]; PpAChE5): 4.6 and 4.68; Vmax Ratio ATC vs. PTC (PpAChE5 [9]; PpAChE5): 7.2 and 7.26; Vmax Ratio ATC vs. BTC (PpAChE2 [10]; PpAChE2): 1.09; Vmax Ratio ATC vs. PTC (PpAChE2 [10]; PpAChE2): 1.62
